Patent US20220332758A1, “PEPTIDE-BASED COMPOSITIONS AND METHODS FOR TREATING ALZHEIMER'S DISEASE” (Board of Regents, The Universityof Texas System, priority 2019, published 2022)

Tests used:
20S proteasome = 20S proteasome (Homo sapiens, UniProt P25787+P60900); conditions: cited from earlier work
[1] = molecular target: T1, α face pockets of the 20S core proteasome (Homo sapiens, UniProt P25787+P60900); assay: Competition of TAT peptides with Rpt C-terminal tail peptides for α face pockets (ChT-L activity of 20S); assay type: biochemical
T1 construct: purified from erythrocytes; purchased Boston Biochem, Inc. or Enzo Life Sciences, Inc; host or cells: human erythrocytes
Text: As mentioned herein, the binding pockets on the α face accept “anchors” from natural protein ligands of the 20S core. […] The 10-residue Rpt-derived C-terminal “tail” peptides (“Rpt peptides”) can be used as competitors with the Rpt subunits or with small allosteric ligands. Importantly, the Rpt peptides interject between the subunits with their C-termini, whereas TAT peptides, according to the modeling, use their N-termini for this purpose. To test the specificity of interactions between TAT compounds and the α face, competition experiments were performed. The 20S core was challenged with selected TAT compounds after treatment with Rpt peptides. Peptides of Rpt2 ([…]; SEQ ID NO: 10), Rpt3 ([…]; SEQ ID NO: 11), Rpt5 ([…]; SEQ ID NO: 12) and Rpt6 ([…]; SEQ ID NO: 13) subunits were selected, docking in α3/α4, α1/α2, α5/α6 and α2/α3 pockets, respectively. Tails of Rpt2, 3, and 5 display the canonical HbYX motif, whereas the LeuTrpLys C-terminus of Rpt6 may be considered “pseudo-HbYX”, with a bulky Trp replacing Tyr. Results of the competition experiments are presented as radar plots in FIG. 15. […] This pocket also emerged as the major binding site for (1) and (8). However, these compounds likely weakly competed with the Rpt2 tail for binding to the α3/α4 pocket as well. The α3/α4 pocket seemed to be favored by (6). […] These complex patterns point at the importance of allosteric effects between the α face ligands, the gate and the catalytic chamber.
Determination of Proteasome Activity. Human housekeeping core (20S) proteasome purified from erythrocytes was purchased from Boston Biochem, Inc. (Cambridge, Mass.) or from Enzo Life Sciences, Inc. (Farmingdale, N.Y.). Multiple batches of the proteasomes were used and performed reproducibly. The stock proteasome was diluted to 0.2 mg/mL working solution in “dilution buffer” (50 mM Tris/HCl, pH 8, 20% glycerol). The following model peptide substrates, releasing fluorescent 7-amino-4-methylcoumarin (AMC) reporter group after cleavage, were used: succinyl-LeuLeuValTyr-AMC (SEQ ID NO: 14) (for the ChT-L peptidase; SucLLVY-AMC; Bachem Bioscience Inc., Philadelphia, Pa.), butoxycarbonyl-LeuArgArg-AMC (T-L; Bachem Bioscience Inc., Philadelphia, Pa.) and carbobenzoxy-LeuLeuGlu-AMC (PGPH; Enzo Life Sciences Inc., Farmingdale, N.Y.). The substrates were used at concentration of 50 μM (ChT-L) or 100 μM (T-L, PGPH). Free AMC (Sigma-Aldrich, St. Louis, Mo.) was used as the standard. The C-terminal peptides derived from Rpt2, Rpt3, Rpt5 and Rpt6 were synthesized (standard solid-phase peptide chemistry) and purified to at least 98% purity by GenScript (Piscataway, N.J.). The TAT peptides, Rpt peptides (except Rpt6) and the peptide substrates were dissolved in anhydrous dimethylsulfoxide (DMSO; Sigma-Aldrich, St. Louis, Mo.) and such stock solutions were stored at −20° C. The total concentration of DMSO in final reaction mixtures never exceeded 3% (vol/vol). The Trp (tryptophan)-containing Rpt6 peptide was dissolved in ultrapure water and stored at −20° C., protected from light. The reaction was carried out in 96-well plates, in 100 μL of reaction mixture that consisted of 45 mM Tris/HCl, pH 8, 100 mM KCl, 1 mM EDTA (reaction buffer) and a fluorogenic peptide substrate, to which 200 ng (nearly […]) of proteasome were added. The addition of KCl/EDTA (ethylenediaminetetraacetic acid) to reaction buffer assured latency of the core proteasome. The proteasome was preincubated with a substrate for 10 min at room temperature, then 1 μL of DMSO or a desired concentration of a TAT peptide in 1 μL of DMSO were added. After mixing, the plate was transferred to a Fluoroskan Ascent plate reader (Thermo Fisher Scientific Inc., Waltham, Mass.) for 1 h (37° C.), with fluorescence readouts once per minute. To test the competition with Rpt derived peptides, the Rpt peptide (1 μM) was added before the TAT peptide to the reaction mixture. […]

[2] = molecular target: T2, proteasome ChT-L activity in SK-N-SH (ATCC HTB-11) cells (Homo sapiens, UniProt P25787+P60900); assay: ChT-L proteasome activity in lysates of SK-N-SH cells treated with TAT peptides; assay type: cell-based; conditions: 1 μM, 24 h
T2 construct: host or cells: SK-N-SH human neuroblastoma cells
Experimental: (§1) Cell Culture. Human SK-N-SH neuroblastoma cell line (ATCC® HTB-11™ American Type Culture Collection; Manassas, Va.) were cultured according to ATCC specifications (EMEM, 10% heat-inactivated FBS) The cells at passage 2-4 were treated with 1 μM TAT peptides or the DMSO vehicle diluted with the medium 1: 1000, for 24 h. The content of live cells was determined by the Trypan Blue-exclusion assay. The cells were harvested, washed twice in PBS, resuspended in dilution buffer (as described herein) and stored in −80° C. To prepare lysates, the thawed preparations were vortexed with glass beads and centrifuged for 5 min 5,000×g (4° C.). The supernatant was centrifuged for 20 min 14,000×g (4° C.). The resulting supernatant—“crude lysate” was diluted to 1 mg/mL of total protein with dilution buffer. 1 μg of lysate per assay (reaction buffer: 50 mM Tris/HCl pH 8, 0.1 mM MgCl2, 0.2 mM ATP, 0.1 mM dithiothreitol, 50 μM Suc-LLVY-AMC (SEQ ID NO: 14)) was used for determination of ChT-L activity in a 96-well format, as above.

[3] = molecular target: proteasome in SK-N-SH cell lysates (Homo sapiens, UniProt P28074); assay: ChT-L activity of SK-N-SH cell lysates exposed to Bortezomib; assay type: biochemical; conditions: 1 μM
Experimental: as §1

[4] = molecular target: T3, latent human 20S proteasome (Homo sapiens, UniProt P25787+P60900); assay: Chymotrypsin-like (ChT-L) activity of purified latent human 20S proteasome, Suc-LLVY-AMC substrate; assay type: biochemical
T3 construct: purified from erythrocytes; purchased Boston Biochem, Inc. or Enzo Life Sciences, Inc; host or cells: human erythrocytes
Experimental: Determination of Proteasome Activity. Human housekeeping core (20S) proteasome purified from erythrocytes was purchased from Boston Biochem, Inc. (Cambridge, Mass.) or from Enzo Life Sciences, Inc. (Farmingdale, N.Y.). […] The stock proteasome was diluted to 0.2 mg/mL working solution in “dilution buffer” (50 mM Tris/HCl, pH 8, 20% glycerol). The following model peptide substrates, releasing fluorescent 7-amino-4-methylcoumarin (AMC) reporter group after cleavage, were used: succinyl-LeuLeuValTyr-AMC (SEQ ID NO: 14) (for the ChT-L peptidase; SucLLVY-AMC; Bachem Bioscience Inc., Philadelphia, Pa.), butoxycarbonyl-LeuArgArg-AMC (T-L; Bachem Bioscience Inc., Philadelphia, Pa.) and carbobenzoxy-LeuLeuGlu-AMC (PGPH; Enzo Life Sciences Inc., Farmingdale, N.Y.). The substrates were used at concentration of 50 μM (ChT-L) or 100 μM (T-L, PGPH). Free AMC (Sigma-Aldrich, St. Louis, Mo.) was used as the standard. […] The TAT peptides, Rpt peptides (except Rpt6) and the peptide substrates were dissolved in anhydrous dimethylsulfoxide (DMSO; Sigma-Aldrich, St. Louis, Mo.) and such stock solutions were stored at −20° C. The total concentration of DMSO in final reaction mixtures never exceeded 3% (vol/vol). The Trp (tryptophan)-containing Rpt6 peptide was dissolved in ultrapure water and stored at −20° C., protected from light. The reaction was carried out in 96-well plates, in 100 μL of reaction mixture that consisted of 45 mM Tris/HCl, pH 8, 100 mM KCl, 1 mM EDTA (reaction buffer) and a fluorogenic peptide substrate, to which 200 ng (nearly […]) of proteasome were added. […] The proteasome was preincubated with a substrate for 10 min at room temperature, then 1 μL of DMSO or a desired concentration of a TAT peptide in 1 μL of DMSO were added. After mixing, the plate was transferred to a Fluoroskan Ascent plate reader (Thermo Fisher Scientific Inc., Waltham, Mass.) for 1 h (37° C.), with fluorescence readouts once per minute. To test the competition with Rpt derived peptides, the Rpt peptide (1 μM) was added before the TAT peptide to the reaction mixture. The reaction rates were calculated from a linear segment of kinetic curves constructed from measurements in 1-min intervals. Reaction rates were calculated using a linear fit performed with the Slope Analyser and Enzyme Kinetics applications launched within Origin Pro 2019 (OriginLab Corporation, Northampton, Mass.). […] The data are presented as mean±SD from at least three independent experiments.
Statistical Analysis. Experiments were performed at least in three independent replicates. The results are presented as a mean±SD. A two-tailed t-test was applied to compare the means. The comparisons were allowing for unequal variances with a Welch correction. Abundance of proteasome conformers was compared with the chi squared test and two-sample proportion test. A significance level was set at 0.05. Statistical analysis was performed using statistical procedures offered by OriginPro 2019 (OriginLabs, Northampton, Mass.). Reaction rates were calculated from a smoothed linear segment of kinetic traces using OriginPro 2019. Response curves (activity vs. compound concentration) were fitted with a nonlinear fitting application of OriginPro 2019. The AC50 and maximum activation fold was calculated based on the equations implemented to fit the response curves.

N=C(N)NCCC[C@H](NC(=O)CN)C(=O)N[C@@H](CCCCN)C(=O)N[C@@H](CCCCN)C(=O)N[C@@H](CCCNC(=N)N)C(=O)N[C@@H](CCCNC(=N)N)C(=O)N[C@@H](CCC(N)=O)C(=O)N[C@@H](CCCNC(=N)N)C(=O)N[C@@H](CCCNC(=N)N)C(=O)N[C@@H](CCCNC(=N)N)C(=O)N1CCC[C@H]1C(=O)N[C@@H](CO)C(=O)O [(1), reference compound]
degradation by 20S proteasome (20S proteasome): digested by 20S proteasome
enhanced activation with Rpt tails ([1]; 1 μM Rpt peptide): enhanced activation in the presence of one of Rpt tails, namely Rpt5 or Rpt6
competition with Rpt tail peptides ([1]; 1 μM Rpt peptide added before the TAT peptide): weakly negative score for the Rpt2 tail to the presumed major competitor Rpt3
proteasome ChT-L activity in lysates from treated cells vs control lysates [2]: lack of significant activation

CC(C)C[C@H](NC(=O)[C@H](Cc1ccccc1)NC(=O)c1cnccn1)B(O)O [Bortezomib]
effect on ChT-L activity of cell lysates (in words) [3]: almost complete abrogation of ChT-L activity

CC(C)(NC(=O)C(CCC(N)=O)NC(=O)C(CCCNC(=N)N)NC(=O)C(CCCNC(=N)N)NC(=O)C(CCCCN)NC(=O)C(CCCCN)NC(=O)C(CCCNC(=N)N)NC(=O)CN)C(=O)NC(=O)C(C)(C)C(=O)NC(CCC(N)=O)C(=O)NC(CCCNC(=N)N)C(=O)NC(CCCNC(=N)N)C(=O)NC(CCCCN)C(=O)NC(CCCCN)C(=O)NC(CCCNC(=N)N)C(=O)NCC(=O)O (stereo not shown) [Tat5-8, 9 Aib, GRKKRRQ-AibG-QRRKKRG]
AC50 ([4]; 20S proteasome AC50, Table 1, ChT-L activity, Suc-LLVY-MCA, purified human housekeeping 20S): 183 nM
activation of ChT-L activity of 20S proteasome (in words) ([4]; in vitro, latent human 20S): surprisingly excellent activator slightly less potent than Tat1-8,9Aib
